Data: article PMC12951568, “Identifying Structural Factors Governing the Photodynamic Activity of Phthalocyanines” (Journal of Medicinal Chemistry, 2026)
“And” between values parts separate entries of the source, which are not always exact repeats. Identical values can stand only once. Like-named read-outs stand apart in the source and are kept apart here.

How the values were obtained:
[1] = Absorption and fluorescence emission spectra in DMF; type: physicochemical; details: in DMF
Protocol: (§1) An absorption spectrum of 2.475 mL of solvent (water, DMF, or PBS) was taken (i.e., absorption spectrum of baseline); then, 25 μL of stock solution was added to reach the final concentration of 1 μM in the cuvette, and the absorption and emission spectra were taken. Baseline of the solvent was subtracted from the obtained absorption spectrum to get the final absorption spectrum of the sample.

[2] = Fluorescence quantum yield, comparative method; type: physicochemical; details: in DMF; ZnPc as reference
Outline: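 ΦF determined by the comparative method against ZnPc (ΦF 0.32 in THF), using integrated emission area, absorbance at the excitation wavelength and solvent refractive index. Q-band absorbance kept below 0.05; estimated error ± 15%.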

[3] = Quantum yield of singlet oxygen production, comparative method with DPBF scavenger; type: physicochemical; details: in DMF, ZnPc as reference
Outline: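 Dye added from 100 μM DMF stock (or DMF/water, water); irradiated under stirring with xenon lamp through water filter and OG530 cut-off (>523 nm). DPBF decay followed at 415 nm; ΦΔ from ln(A0/At) slopes versus reference, normalised to absorbed light summed over 523–850 nm; triplicate means, ±10% error.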

[4] = Log P, partition between n-octanol and PBS; type: physicochemical; details: partition coefficient between 1-octanol and PBS
Outline: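 Sample from 100 μM stock added to equal volumes of n-octanol and PBS, vortexed 5 min at rt, centrifuged. Each layer diluted into DMF and emission spectra recorded; log P taken as log of octanol/PBS integrated fluorescence ratio, mean of triplicates.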

[5] = Aggregation / monomerization in aqueous media (spectra in water and PBS); type: physicochemical; details: 1 μM
Protocol: as §1

[6] = test system: SK-MEL-28 (human skin melanoma); assay: Photodynamic activity (phototoxicity, neutral red uptake) on SK-MEL-28; type: cell-based; details: 12 h incubation, Xe-lamp 15 min, λ > 570 nm, 11.2 J/cm^2, mean ± SD, t.w. = this work
[7] = test system: HeLa (human cervical carcinoma); details: 12 h incubation, Xe-lamp 15 min, λ > 570 nm, 11.2 J/cm^2; mean ± SD; determined previously under the same conditions at the same workplace and published; ref number not given; read-out: EC50 (nM) HeLa; cited from earlier work
[8] = test system: MCF-7 (human breast adenocarcinoma); set-up: method as in number not printed in Table 2; details: 12 h incubation, Xe-lamp 15 min, λ > 570 nm, 11.2 J/cm^2; mean ± SD; determined previously under the same conditions at the same workplace and published; ref number not given; cited from earlier work
[9] = in THF; ref number not given; cited from earlier work
[10] = ref number not given, cited from earlier work; for ΦΔ of the reference standard: in DMF; for ΦΔ(EtOH): in EtOH
[11] = Fluorescence lifetime in DMF; type: physicochemical
Description: 1 Photophysical Data of Investigated Derivatives in DMF ^a | column: τF1/ns; τF2/ns

[12] = test system: HeLa (human cervical carcinoma); assay: Photodynamic activity (phototoxicity, neutral red uptake) on HeLa; type: cell-based; details: for EC50: 12 h incubation, Xe-lamp 15 min, λ > 570 nm, 11.2 J/cm^2, mean ± SD, t.w. = this work
Protocol: Detailed in vitro studies involving subcellular localization and determination of the EC50 in three different cell lines (human cervical carcinoma–HeLa, human breast adenocarcinoma–MCF-7, and human skin melanoma–SK-MEL-28) were performed. A broadband light source (ozone-free 450 W Xe-lamp, Newport) equipped with the long-pass filter Schott OG570 was used (12.4 mW/cm^2, 15 min, 11.2 J/cm^2).
For the cytotoxicity experiments (phototoxicity), cells were seeded at 100 μL per well into 96-well plates (TPP, Switzerland) at a density of 7.5 × 10^3 (HeLa) or 1.0 × 10^4 (MCF-7 and SK-MEL-28) cells per well. Cells were left to grow for 24 h (until they reached confluency) in a controlled environment of a CO2 incubator (37 °C, 5% CO2 atmosphere, constant high humidity). Subsequently, studied compounds were added in a wide concentration range and incubated with the cells for 12 h. Cells were washed; fresh cell culture medium was added, and the cells were irradiated using a 450 W Xe lamp (Newport, USA). The lamp was equipped with a long pass filter (Newport OG570) and an 8 cm water filter (λ > 570 nm, 12.4 mW/cm^2, 15 min, 11.2 J/cm^2). Cellular viability was assessed after an additional 24 h by the neutral red (NR; Sigma, Merck, USA) uptake assay. At least three independent experiments, each in triplicate, were performed. The soluble NR was measured at λ = 540 nm using a Tecan Infinite 200 M plate reader (Tecan, Austria). The viability of each experimental group was expressed as the percentage of the untreated cells (100% viability) after subtraction of the signal from cells treated with a lethal dose of hydrogen peroxide (0% viability). […] EC50 values were calculated, and graphs were created by using GraphPad Prism 10.3.1 (Graph Pad software, USA).

[13] = test system: MCF-7 (human breast adenocarcinoma); assay: Photodynamic activity (phototoxicity, neutral red uptake) on MCF-7; type: cell-based; details: for EC50: 12 h incubation, Xe-lamp 15 min, λ > 570 nm, 11.2 J/cm^2, mean ± SD, t.w. = this work
[14] = molecular target: bovine serum albumin (BSA) (Bos taurus, UniProt P02769); assay: Interaction with bovine serum albumin (absorption and emission spectra in PBS); type: binding; details: 1 μM Pc in PBS, BSA 17.5, 35 and 100 μM
Sequence of bovine serum albumin (BSA) (P02769 25-607): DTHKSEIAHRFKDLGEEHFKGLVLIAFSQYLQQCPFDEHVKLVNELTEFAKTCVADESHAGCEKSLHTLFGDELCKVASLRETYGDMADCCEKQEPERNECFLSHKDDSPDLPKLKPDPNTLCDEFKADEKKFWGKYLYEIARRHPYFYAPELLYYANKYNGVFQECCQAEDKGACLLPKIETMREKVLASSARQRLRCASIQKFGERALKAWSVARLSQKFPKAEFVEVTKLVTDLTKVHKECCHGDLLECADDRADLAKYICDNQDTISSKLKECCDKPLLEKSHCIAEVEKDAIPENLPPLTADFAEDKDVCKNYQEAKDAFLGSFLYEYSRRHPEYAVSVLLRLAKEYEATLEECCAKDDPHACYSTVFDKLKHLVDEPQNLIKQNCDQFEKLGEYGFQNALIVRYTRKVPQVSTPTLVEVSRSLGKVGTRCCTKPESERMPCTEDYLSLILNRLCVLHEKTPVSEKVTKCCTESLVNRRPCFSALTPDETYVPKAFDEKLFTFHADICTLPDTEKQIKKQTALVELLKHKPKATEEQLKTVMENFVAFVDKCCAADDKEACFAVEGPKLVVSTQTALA

| Molecule | ε, extinction coefficient [1] | λA, absorption maximum in the Q-band [1] [nm] | λF, fluorescence emission maximum [1] [nm] | ΦF, fluorescence quantum yield [2] | ΦΔ, quantum yield of singlet oxygen production [3] | Log P [4] | aggregation / monomeric state [5] | EC50 [6] [nM] | EC50 [7] [nM] | EC50 [8] [nM] | τF1, fluorescence lifetime (relative amplitude in brackets) [11] | τF2, fluorescence lifetime (relative amplitude in brackets) [11] | EC50 [13] [nM] | ΦΔ(EtOH) [10] | also measured |
| --- | --- | --- | --- | --- | --- | --- | --- | --- | --- | --- | --- | --- | --- | --- | --- |
| Cc1cc(Cn2cc[n+](C)c2)c(Oc2c3c(c(C)c(C)[n+]2C)C2=NC3=Nc3c4ccccc4c4[n]3[Zn][n]3c(c5ccccc5c3=N2)=NC2=NC(=N4)c3ccccc32)c(Cn2cc[n+](C)c2)c1.[I-].[I-].[I-] [C1Zn] | 100 240 M^–1cm^–1 | 689 | 696 | 0.15 | 0.66 | 0.53 | monomeric in DMF but are aggregated in PBS | 22 ± 3 | 27 ± 9 | 35 ± 2 |  |  |  |  |  |
| [Zn+2].c1ccc2c(c1)-c1nc-2nc2[n-]c(nc3nc([n-]c4nc(n1)-c1ccccc1-4)-c1ccccc1-3)c1ccccc21 [ZnPc, unsubstituted zinc(II) phthalocyanine, reference compound] |  |  |  |  |  |  |  |  |  |  |  |  |  |  | ΦF of the reference standard [9]: 0.32; ΦΔ of the reference standard [10]: 0.56 |
| Cc1cc(Cn2cc[n+](C)c2)c(Oc2cc3c(cc2Oc2c(Cn4cc[n+](C)c4)cc(C)cc2Cn2cc[n+](C)c2)C2=Nc4c5cc(Oc6c(Cn7cc[n+](C)c7)cc(C)cc6Cn6cc[n+](C)c6)c(Oc6c(Cn7cc[n+](C)c7)cc(C)cc6Cn6cc[n+](C)c6)cc5c5[n]4[Zn][n]4c(c6cc(Oc7c(Cn8cc[n+](C)c8)cc(C)cc7Cn7cc[n+](C)c7)c(Oc7c(Cn8cc[n+](C)c8)cc(C)cc7Cn7cc[n+](C)c7)cc6c4=NC4=NC(=N5)c5cc(Oc6c(Cn7cc[n+](C)c7)cc(C)cc6Cn6cc[n+](C)c6)c(Oc6c(Cn7cc[n+](C)c7)cc(C)cc6Cn6cc[n+](C)c6)cc54)=NC3=N2)c(Cn2cc[n+](C)c2)c1.[I-].[I-].[I-].[I-].[I-].[I-].[I-].[I-].[I-].[I-].[I-].[I-].[I-].[I-].[I-].[I-] [C12Zn] | 244 030 M^–1cm^–1 | 679 | 687 | 0.20 | 0.48 | –2.08 |  | 45 ± 7 | 37 ± 6 | 11 ± 3 | 0.62 (7%) ns | 2.23 (93%) ns |  |  | increase in activity of C12Zn in comparison with C3Zn (fold) ([12]; HeLa cells): 1.3; increase in activity of C12Zn in comparison with C3Zn (fold) ([13]; MCF-7 cells): 2 |
| C[n+]1cccc(Oc2cc3c(cc2Oc2ccc[n+](C)c2)C2=Nc4c5cc(Oc6ccc[n+](C)c6)c(Oc6ccc[n+](C)c6)cc5c5[n]4[Zn][n]4c(c6cc(Oc7ccc[n+](C)c7)c(Oc7ccc[n+](C)c7)cc6c4=NC4=NC(=N5)c5cc(Oc6ccc[n+](C)c6)c(Oc6ccc[n+](C)c6)cc54)=NC3=N2)c1.[I-].[I-].[I-].[I-].[I-].[I-].[I-].[I-] [C6Zn] | 41 730 M^–1cm^–1 | 681 | 683 | 0.001 | 0.02 | –2.59 | did not sufficiently suppress aggregation | 150 ± 50 |  |  | 0.07 (3%) ns | 2.84 (97%) ns | 110 ± 30 |  | EC50 [12]: 58 ± 20 nM |
| C=Cc1c(C)c2cc3nc(cc4[nH]c(cc5nc(cc1[nH]2)C(C)=C5CCC(=O)O)c(CCC(=O)OC)c4C)[C@@]1(C)C3=CC=C(C(=O)OC)[C@H]1C(=O)OC [verteporfin, reference compound] |  | 690 | 696 | 0.18 |  |  |  |  | 36 ± 10 |  | 6.05 ns |  |  | 0.51–0.67 | logP ([4]; n-octanol/PBS buffer): 2.51; EC50 ([13]; Homo sapiens, MCF7, light or radiation study): 33 ± 3 nM; EC50 ([6]; Homo sapiens, SK-MEL-28, light or radiation study): 21 ± 3 nM |
| O=C([O-])c1cc(C(=O)[O-])cc(-c2cc3c(cc2-c2cc(C(=O)[O-])cc(C(=O)[O-])c2)C2=Nc4c5ccccc5c5[n]4[Zn][n]4c(c6ccccc6c4=NC3=N2)=NC2=NC(=N5)c3ccccc32)c1.[Na+].[Na+].[Na+].[Na+] [A2Zn] | 152 090 M^–1cm^–1 | 677 | 688 | 0.02 | 0.22 | –2.42 | aggregated in water | 700 ± 50 | 410 ± 156 | 584 ± 88 | 0.23 (16%) ns | 2.66 (84%) ns |  |  | Interaction with BSA: disaggregation/monomerization and changes in absorption and fluorescence emission spectra [14]: partial; fold higher photodynamic activity vs symmetrical hydrophilic counterparts ([12]; HeLa, unsymmetrical anionic A1Zn, A2Zn vs A3Zn, A4Zn): 25 and ~21 |
| Cc1cc(Cn2cc[n+](C)c2)c(Oc2cc3c(cc2Oc2c(Cn4cc[n+](C)c4)cc(C)cc2Cn2cc[n+](C)c2)C2=Nc4c5ccccc5c5[n]4[Zn][n]4c(c6ccccc6c4=NC3=N2)=NC2=NC(=N5)c3ccccc32)c(Cn2cc[n+](C)c2)c1.[I-].[I-].[I-].[I-] [C3Zn] | 177 190 M^–1cm^–1 | 673 | 682 | 0.19 | 0.53 | –0.84 | monomeric in DMF but are aggregated in PBS | 40 ± 4 | 48 ± 19 | 21 ± 8 |  |  |  |  |  |
| temoporfin [reference compound] |  | 651 | 656 | 0.24 |  | 1.40 |  | 103 ± 17 | 45 ± 7 |  | 9.66 ns |  | 210 ± 74 | 0.51–0.67 |  |
| O=C([O-])c1c(Cl)c(Cl)c(Cl)c(Cl)c1-c1c2cc(I)c(=O)c(I)c-2oc2c(I)c([O-])c(I)cc12.[Na+].[Na+] [Rose Bengal] |  |  |  |  |  |  |  |  |  |  |  |  |  |  | ΦΔ of the reference standard [10]: 0.47 |
| protoporhyrin IX [PpIX, reference compound] |  | 630 | 634 | 0.12 |  | 1.06 |  | 6200 ± 300 |  |  |  |  | 5700 ± 800 | 0.51–0.67 | EC50 [12]: 5500 ± 600 nM |
